“Also recorded” adds a separate entry of the source. Where two headings read alike, the source gives them in different places.
Assays:
[1] = test system: HIV-1 (BaL); format: cell-based; details: TZM-bl assay; for EC50: HIV-1 BaL (R5), 24 hr, luciferase activity
Description: The ability of the analogs to inhibit HIV infection was determined with an assay that determines viral infectivity with an LTR-mediated luciferase reporter construct [37]. In brief, TZM-bl reporter cells are HeLa-derived JC53-BL cells that express high levels of CD4, CXCR4, and CCR5. They also contain reporter cassettes for luciferase and β-galactosidase, both driven by the HIV-1 long terminal repeat [38]). 24 hr after these reporter cells were exposed to R5 lab-adapted strains of HIV-1 (BaL) in the presence of peptides, protection was measured as % reduction in luciferase activity (relative light units) compared to cells infected with virus and peptide vehicle alone.

[2] = test system: viral glycoproteins (GRFN-1 binding; gp120LAV chip); test: SPR competition of saccharides with GRFN-1 binding; set-up: species or system HIV-1
Description: α-D-mannopyranose (Man), L-fucopyranose (Fuc), α-D-galactopyranose (Gal), sialic acid (N-acetyl-neuraminic acid, Neu5Ac), N-acetyl-glucosamine (GlcNAc) and Man3(GlcNAc)2, a core pentasaccharide found in most N-linked oligosaccharides. All of these saccharides were purchased from Sigma-Aldrich (St. Louis, MO).

[3] = test system: CXCR4 (HIV-1IIIB); test: p24^gag antigen release assay using PBMCs, CXCR4 strain; format: cell-based; details: PBMC based p24^gag antigen release assay
[4] = test system: CCR5 (HIV-1BAL); test: p24^gag antigen release assay using PBMCs, CCR5 strain; format: cell-based; details: PBMC based p24^gag antigen release assay
[5] = test system: HIV-1; details: read-out: average EC50; anti-HIV inhibitory activity; ref [20], [21]; cited from earlier work
Description: Preventing HIV-1 infection is the primary goal of pre- and post-exposure prophylaxis of HIV. Prophylactic modalities that block HIV-1 entry would be particularly valuable, because latent HIV-1 infections are typically refractory to therapeutic or immunological interventions [1]–[9]. […] Most anti-HIV lectins have been identified in and isolated from natural sources. They include cyanovirin-N [11], [12] and scytovirin [13] from cyanobac ...

## CC[C@H](C)[C@@H]1NC(=O)CNC(=O)[C@H](CCCCN)NC(=O)CNC(=O)[C@@H]2CSSC[C@H](NC1=O)C(=O)N[C@@H](CCCNC(=N)N)C(=O)N[C@H]1CSSC[C@H](NC(=O)[C@H](CCCNC(=N)N)NC(=O)[C@@H]3CSSC[C@H](NC(=O)[C@H]([C@@H](C)CC)NC1=O)C(=O)NCC(=O)N[C@@H](CCCNC(=N)N)C(=O)NCC(=O)N[C@@H]([C@@H](C)CC)C(=O)N3)C(=O)N[C@@H]([C@@H](C)CC)C(=O)N2 [RC-101, reference compound]
[1]
  EC50: 3400 nM

## Man3GlcNAc2
[2]; pH = 7.4
  competition with binding of GRFN-1 to viral glycoproteins (in words): interacted with all of these sugars, except fucose

## O=C[C@H](O)[C@@H](O)[C@@H](O)[C@H](O)CO [galactose, α-D-galactopyranose]
[2]; pH = 7.4
  competition with binding of GRFN-1 to viral glycoproteins (in words): interacted with all of these sugars, except fucose

## CC(=O)N[C@@H]1[C@@H](O)[C@H](O)[C@@H](CO)O[C@H]1O [GlcNAc, N-acetyl-glucosamine]
[2]; pH = 7.4
  competition with binding of GRFN-1 to viral glycoproteins (in words): interacted with all of these sugars, except fucose; also recorded: the most effective competitors

## Cha-SC-Chg-R-Chg-RSGSY-Cha-DR-Ch\g-R-Chg-(D)Cys-CONH2 (disulfide) [GRFN-2, otherwise identical peptide with an Asn to Arg substitution]
[1]; dose response, Figure 4
  antiviral activity (in words): considerably less active than GRFN-1

## griffithsin
[1]; griffithsin
  EC50: 0.0196 ± 0.0019 nM
[3]
  antiviral activity (in words): maintained their antiviral activity
[4]
  antiviral activity (in words): maintained their antiviral activity
[5]
  EC50: 0.04 nM

## OC[C@H]1O[C@H](O)[C@@H](O)[C@@H](O)[C@@H]1O [mannose, α-D-mannopyranose]
[2]; pH = 7.4
  competition with binding of GRFN-1 to viral glycoproteins (in words): interacted with all of these sugars, except fucose; also recorded: the most effective competitors
[2]; pH = 7.4, listed as D-Mannose
  competition with binding of GRFN-1 to viral glycoproteins (in words): especially potent inhibitor that could almost completely abrogate binding of GRFN-1 to the viral glycoproteins

## CC(=O)N[C@H]1[C@H]([C@H](O)[C@H](O)CO)OC(O)(C(=O)O)C[C@@H]1O (stereo partly drawn) [sialic acid, N-acetyl-neuraminic acid]
[2]; pH = 7.4
  competition with binding of GRFN-1 to viral glycoproteins (in words): interacted with all of these sugars, except fucose; also recorded: less profound

— paper PMC3002932 (PLoS ONE, 2010)
